Measured values as given in patent US8778921B2, “Ansamycin hydroquinone compositions” (Infinity Pharmaceuticals, Inc., priority 2008, dated 2014).

What was measured:
[1] = Stability at 40° C. and 75% relative humidity (percent purity by HPLC); assay type: physicochemical; details: 40° C. and 75% RH
Experimental: As used herein, a “stable composition” refers a composition comprising a sulfur-containing compound and a baseline amount of the compound of formula (I) (e.g., such as percent purity as measured by HPLC) such that, after being subjected to standard stability conditions (e.g., 40° C. and 75% relative humidity) for a specified period of time (e.g., 1 day, 2 days, 3 days, 4 days, 5 days, 7 days, 14 days, 21 days, or 30 days), at least about 80% of the original amount of the compound of formula (I) remains in the composition (i.e., has not oxidized to a compound of formula (II) or degraded to other by-products). In certain embodiments, at least about 85%, at least about 90%, at least about 91%, at least about 92%, at least about 93%, at least about 94%, or at least about 95% of the original amount of the hydroquinone compound of formula (I) remains in the composition for a specified period of time (e.g., 1 day, 2 days, 3 days, 4 days, 5 days, 7 days, 14 days, 21 days, or 30 days).
The stability data for 17-AG-HQ of Example 2 when kept at 40° C. and 75% relative humidity (RH) is depicted in FIG. 8 (see Table 2 for tabulated stability data). It was observed that 17-AG-HQ of Example 2 completely oxidizes to its quinone form in two weeks at 40° C. and […] as determined by HPLC.

[2] = Solubilizing or suspending agents: color change as indication of oxidation of 17-AG-HQ to 17-AG; assay type: physicochemical; details: argon headspace, checked up to one hour
Experimental: Solvents (2 mL) were pipetted out into labeled vials (Table 4). After purging the headspace with argon, the solvent vials were chilled at 4° C. for 1 hour. 17-AG-HQ of Example 2 (10 mg) was added each solvent vial and headspace was purged again with argon. The vials were checked for color change for up to one hour. Color change is an indication of stability: 17-AG-HQ is yellow while 17-AG is pink, thus a color change from yellow to pink would indicate oxidation of 17-AG-HQ to 17-AG. This listing of suitable solvents or suspending agents is also applicable for solvating/suspending the hydroquinones of Examples 3-6, 8, 10 or 11.

[3] = Table 12, formulations of 17-AG-HQ of Example 2

## CO[C@H]1/C=C\C=C(/C)C(=O)Nc2cc(O)c(N)c(c2O)C[C@@H](C)C[C@H](OC)[C@H](O)[C@@H](C)/C=C(\C)[C@@H]1OC(N)=O [17-AG-HQ of Example 2, 17-amino-geldanamycin hydroquinone]
[1]; determined by HPLC
  time in which the hydroquinone completely oxidizes to its quinone form: two
[1]; more prone to oxidation
  stability compared to 17-AG-HQ HCl salt of Example 1: less stable
[1]; Table 2
  Percent Purity of 17-AG-HQ T = 0 Days: 92%
  Percent Purity of 17-AG-HQ T = 2 Days: 66%
  Percent Purity of 17-AG-HQ T = 5 Days: 22%
  Percent Purity of 17-AG-HQ T = 14 Days: 0%
  Percent Purity of 17-AG-HQ T = 30 Days: 0%
[1]; [3]
  Percent Purity of 17-AG-HQ T = 0 Days: 92%
  Percent Purity of 17-AG-HQ T = 2 Days: 66%
  Percent Purity of 17-AG-HQ T = 5 Days: 22%
  Percent Purity of 17-AG-HQ T = 14 Days: 0%
  Percent Purity of 17-AG-HQ T = 30 Days: 0%
[2]; Acetone, 10 mg in 2 mL solvent chilled at 4° C.
  Observations: Dissolves with no color change
[2]; DMSO:Acetonitrile:TFA (80:20:0.1), 10 mg in 2 mL solvent chilled at 4° C.
  Observations: Dissolves with color change to rusty
[2]; Dichloromethane, 10 mg in 2 mL solvent chilled at 4° C.
  Observations: Dissolves with no color change
[2]; Ethanol, 10 mg in 2 mL solvent chilled at 4° C.
  Observations: Dissolves with no color change
[2]; Methanol, 10 mg in 2 mL solvent chilled at 4° C.
  Observations: Dissolves with color change to red
[2]; Mineral Oil, 10 mg in 2 mL chilled at 4° C.
  Observations: Suspends with no color change
[2]; Propylene Glycol, 10 mg in 2 mL solvent chilled at 4° C.
  Observations: Dissolves with color change to rusty
[2]; Toluene, 10 mg in 2 mL solvent chilled at 4° C.
  Observations: Dissolves with no color change
[2]; Xylene, 10 mg in 2 mL solvent chilled at 4° C.
  Observations: Dissolves with no color change
